The test system of the assay is Euschistus heros. Description: Euschistus heros (neotropical brown stink bug) contact/feeding activity on sprayed soybean plants. Format: in vivo. The conditions noted are these: 120 h, N-2 nymphs on sprayed 2 week old soybean plants, evaluation 5 days after infestation, average of two replicates, read-out: mortality and growth effects; for mortality at 3 ppm: Rate 3 ppm; for mortality at 6 ppm: Rate 6 ppm; for mortality at 12.5 ppm: Rate 12.5 ppm. Here is the method:
Euschistus heros (Neotropical Brown Stink Bug) (Contact/Feeding Activity)
2 week old soybean plants are sprayed in a turn table spray chamber with the diluted spray solutions. After drying, 2 soybean seeds are added and plants are infested with 10 N-2 nymphs of the neotropical brown stink bug Euschistus heros in plastic test boxes. Boxes are incubated in a climate chamber at 25° C. and 60% RH. Evaluation is done 5 days after infestation on mortality and growth effects. The data is an average of two replicates.

For orientation: mortality means the share of the test organisms that died. For the compound `Cc1cc(C2=NOC(c3cc(Cl)cc(Cl)c3)(C(F)(F)F)C2)ccc1C(=O)NC1CSC1` (stereo not drawn) [Compound 1], the mortality at 3 ppm turned out to be 65%, the mortality at 6 ppm was 80% and the mortality at 12.5 ppm was 85%.
Consider `Cc1cc(C2=NOC(c3cc(Cl)cc(Cl)c3)(C(F)(F)F)C2)ccc1C(=O)NC1CS(=O)(=O)C1` (stereo not drawn) [Compound 2], for which the mortality at 3 ppm was found to be 65%, the mortality at 6 ppm was determined as 95% and the mortality at 12.5 ppm is 95%.
For the compound `Cc1cc(C2=NOC(c3cc(Cl)cc(Cl)c3)(C(F)(F)F)C2)ccc1C(=O)NC1(C)CSC1` (stereo not drawn) [Compound 3], the mortality at 3 ppm is 0%, the mortality at 6 ppm turned out to be 20% and the mortality at 12.5 ppm is 75%.
Taken in the same sequence, the figures for `COC(=O)N1CC(NC(=O)c2ccc(C3=NOC(c4cc(Cl)cc(Cl)c4)(C(F)(F)F)C3)cc2C)C1` (stereo not drawn) [Compound 4] were 15%, 25% and 35%.
As to `Cc1cc(C2=NOC(c3cc(Cl)cc(Cl)c3)(C(F)(F)F)C2)ccc1C(=O)NCC(=O)CC(F)(F)F` (stereo not drawn) [Compound 5], the mortality at 3 ppm is 85%, the mortality at 6 ppm stood at 90% and the mortality at 12.5 ppm turned out to be 100%.
For `O=C(CNC(=O)c1ccc(C2=NOC(c3cc(Cl)cc(Cl)c3)(C(F)(F)F)C2)c2ccccc12)CC(F)(F)F` (stereo not drawn) [Compound 6], the mortality at 3 ppm was determined as 95%, the mortality at 6 ppm was 100% and the mortality at 12.5 ppm is 95%.
With `O=C(CNC(=O)c1ccc(C2=NOC(c3cc(Cl)cc(Cl)c3)(C(F)(F)F)C2)cc1)CC(F)(F)F` (stereo not drawn) [Compound 7], the mortality at 3 ppm came to 5%, the mortality at 6 ppm was found to be 20% and the mortality at 12.5 ppm is 60%.
Taken in the same sequence, the figures for `CCCCNC(=O)c1ccc(C2=NOC(c3cc(Cl)cc(Cl)c3)(C(F)(F)F)C2)cc1C` (stereo not drawn) [Compound 8] were 5%, 35% and 95%.
With `Cc1cc(C2=NOC(c3cc(Cl)cc(Cl)c3)(C(F)(F)F)C2)ccc1C(=O)NCC(F)(F)F` (stereo not drawn) [Compound 9], the mortality at 3 ppm was 15%, the mortality at 6 ppm was determined as 75% and the mortality at 12.5 ppm is 70%.

The values are drawn from US20130317073A1, “METHODS OF PEST CONTROL IN SOYBEAN” (SYNGENTA LIMITED, priority 2011, published 2013).
